Values of other authors, collected in patent publication US20130303466A1, “Chemosensory Receptor Ligand-Based Therapies” (ELCELYX THERAPEUTICS, INC., priority 2010, published 2013).

Biological target: T1, sweet receptor (Homo sapiens, UniProt Q7RTX0+Q8TE23)
T1 sequence (Q8TE23 20-839): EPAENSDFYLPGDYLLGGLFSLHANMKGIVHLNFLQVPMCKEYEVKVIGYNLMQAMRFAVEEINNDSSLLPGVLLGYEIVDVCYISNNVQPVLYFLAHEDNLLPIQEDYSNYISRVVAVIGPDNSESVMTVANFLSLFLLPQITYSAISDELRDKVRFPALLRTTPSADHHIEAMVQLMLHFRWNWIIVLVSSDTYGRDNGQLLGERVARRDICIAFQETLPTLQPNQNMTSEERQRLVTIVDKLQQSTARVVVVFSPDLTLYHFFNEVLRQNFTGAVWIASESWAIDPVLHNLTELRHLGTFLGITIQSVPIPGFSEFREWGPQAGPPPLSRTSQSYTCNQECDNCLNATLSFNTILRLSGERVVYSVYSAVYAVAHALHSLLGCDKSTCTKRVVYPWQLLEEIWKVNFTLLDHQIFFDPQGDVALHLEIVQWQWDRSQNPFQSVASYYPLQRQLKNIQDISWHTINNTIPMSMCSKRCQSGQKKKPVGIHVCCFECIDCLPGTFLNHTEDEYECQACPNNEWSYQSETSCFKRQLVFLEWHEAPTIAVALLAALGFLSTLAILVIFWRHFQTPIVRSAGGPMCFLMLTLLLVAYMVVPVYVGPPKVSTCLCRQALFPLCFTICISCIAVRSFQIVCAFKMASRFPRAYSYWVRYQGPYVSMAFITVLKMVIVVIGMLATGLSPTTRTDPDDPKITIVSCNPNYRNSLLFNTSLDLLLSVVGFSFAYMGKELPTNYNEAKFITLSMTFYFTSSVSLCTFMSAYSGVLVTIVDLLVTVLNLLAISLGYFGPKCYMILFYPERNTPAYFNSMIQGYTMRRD
T1 sequence (Q7RTX0 21-852): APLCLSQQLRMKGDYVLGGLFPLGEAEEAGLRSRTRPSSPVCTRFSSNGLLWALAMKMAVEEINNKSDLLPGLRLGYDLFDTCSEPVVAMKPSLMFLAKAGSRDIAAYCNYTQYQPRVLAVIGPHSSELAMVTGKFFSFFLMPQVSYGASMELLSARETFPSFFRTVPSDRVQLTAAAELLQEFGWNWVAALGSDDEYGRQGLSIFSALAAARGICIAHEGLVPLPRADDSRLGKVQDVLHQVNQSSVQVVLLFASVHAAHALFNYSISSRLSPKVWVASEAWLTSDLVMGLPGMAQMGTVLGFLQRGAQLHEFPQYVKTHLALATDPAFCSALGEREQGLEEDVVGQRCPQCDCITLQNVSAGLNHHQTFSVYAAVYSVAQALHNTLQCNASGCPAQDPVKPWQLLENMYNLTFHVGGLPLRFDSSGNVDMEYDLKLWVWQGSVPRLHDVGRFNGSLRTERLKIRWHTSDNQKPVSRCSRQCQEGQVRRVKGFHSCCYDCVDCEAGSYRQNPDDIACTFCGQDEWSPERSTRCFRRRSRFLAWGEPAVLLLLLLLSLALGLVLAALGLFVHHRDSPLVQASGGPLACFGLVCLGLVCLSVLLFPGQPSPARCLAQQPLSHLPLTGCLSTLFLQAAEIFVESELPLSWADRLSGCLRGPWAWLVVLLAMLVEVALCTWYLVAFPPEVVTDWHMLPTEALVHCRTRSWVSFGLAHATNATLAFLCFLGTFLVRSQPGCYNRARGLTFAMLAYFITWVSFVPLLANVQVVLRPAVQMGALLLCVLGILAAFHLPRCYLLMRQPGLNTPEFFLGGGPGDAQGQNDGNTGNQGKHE
Conditions: relative sweetness on a weight comparison basis to sucrose (= 1.0); ranges: relative sweetness varied with the concentration of sucrose; adapted from Kim et al., 2002
In the case of C[C@@H]1O[C@@H](O[C@H]2O[C@@H]([C@@H](C)C3CC[C@@H]4[C@H]5CC(=O)[C@@H]6C[C@H](O[C@@H]7O[C@H](CO)[C@@H](O)[C@H](O)[C@H]7O[C@@H]7O[C@@H](C)[C@H](O)[C@@H](O)[C@H]7O)CC[C@]6(C)[C@@H]5CC[C@]34C)CC[C@@H]2C)[C@H](O)[C@H](O)[C@H]1O (some centres unmarked) [Osladin (64), Osladin], the Sweetness/potency is listed as 500.
In the case of CC1(C)[C@@H](O[C@@H]2O[C@H](C(=O)O)[C@@H](O)[C@H](O)[C@H]2O[C@@H]2O[C@H](C(=O)O)[C@@H](O)[C@H](O)[C@H]2O)CC[C@]2(C=O)[C@H]3CC[C@@H]4C5=C[C@@](C)(C(=O)O)CC[C@]5(C)CC[C@@]4(C)[C@]3(C)CC[C@@H]12 [Periandrin I (57), Periandrin I], the Sweetness/potency is given as 90.
For C/C(=C\CC[C@@H](C)[C@H]1CC[C@@]2(C)[C@@H]3CC=C4[C@@H](CC[C@H](O[C@@H]5O[C@H](CO)[C@@H](O)[C@H](O)[C@H]5O)C4(C)C)[C@]3(C)[C@H](O)C[C@]12C)CO[C@@H]1O[C@H](CO[C@@H]2O[C@H](CO)[C@@H](O)[C@H](O)[C@H]2O)[C@@H](O)[C@H](O)[C@H]1O [Carnosifloside VI (36), Carnosifloside VI], the Sweetness/potency is given as 77.
For “Brazzein: sweet protein from Pentadiplandra brazzeana Baillon (QDKCKKVYENYPVSKCQLANQCNYDCKLDKHARSGECFYDEKRNLQCICDYCEY; UniProt P56552 1-54, looked up)”, the Sweetness/potency is given as 2,000.
In the case of CC1=CC[C@@H]([C@@H](C)[C@H]2CC[C@@]3(C)[C@@H]4CC[C@H]5[C@](C)(C(=O)O)[C@@H](O[C@@H]6O[C@H](CO)[C@@H](O)[C@H](O)[C@H]6O[C@@H]6O[C@H](CO)[C@@H](O)[C@H](O)[C@H]6O)CC[C@@]56C[C@@]46CC[C@]23C)OC1=O [Abrusoside C (44), Abrusoside C], the Sweetness/potency is given as 50.
In the case of Oc1cc2c(cc1O)[C@@H]1c3ccc(O)c(O)c3OC[C@]1(O)C2 [Hematoxylin (99), Hematoxylin], the Sweetness/potency is listed as 120.
In the case of C/C=C/c1ccc(OC)cc1 [trans-Anethole(78), trans-Anethole], the Sweetness/potency is listed as 13.
In the case of COc1c(O)cc2c(c1O)C(=O)[C@H](OC(C)=O)[C@@H](c1ccc(O)cc1)O2 [(2R,3R)-2,3-Dihydro-5,7,4′-trihydroxy-6-methoxy-3-O-acetylflavonol], the Sweetness/potency is given as 20.
In the case of Monellin, the Sweetness/potency is given as 3,000.
In the case of Scandenoside R6 [Scandenoside R6 (39)], the Sweetness/potency is given as 54.
For Pentadin, the Sweetness/potency is listed as 500.
For Polypodoside A [Polypodoside A (65)], the Sweetness/potency is listed as 600.
For C=C1C[C@@]23CC[C@H]4[C@@](C)(CCC[C@@]4(C)C(=O)O[C@@H]4O[C@H](CO)[C@@H](O)[C@H](O)[C@H]4O)[C@@H]2CC[C@]1(O[C@@H]1O[C@H](CO)[C@@H](O)[C@H](O)[C@H]1O[C@@H]1O[C@H](CO)[C@@H](O)[C@H](O)[C@H]1O)C3 [Stevioside (5), Stevioside], the Sweetness/potency is given as 210.
In the case of CC1(C(=O)O)C=C2C3CCC4C5(CO)CCC(OC6OC(C(=O)O)C(O)C(O)C6OC6OC(C(=O)O)C(O)C(O)C6O)C(C)(C)C5CCC4(C)C3(C)CCC2(C)CC1 (centres unmarked) [Periandrin III (59), Periandrin III], the Sweetness/potency is listed as 92.
For “Cyclocaryoside I [Cyclocaryoside I (48)]”, the Sweetness/potency is listed as 250.

System: GLP-1
Conditions: rats; with administration of a DPP-IV inhibitor
In the case of OCCN1C[C@H](O)[C@@H](O)[C@H](O)[C@H]1CO [miglitol], the “increase in GLP-1” value is listed as “synergistic”.

System: gut hormone release
Conditions: humans, instillation into the duodenum
For OC[C@H]1O[C@H](O[C@]2(CCl)O[C@H](CCl)[C@@H](O)[C@@H]2O)[C@H](O)[C@@H](O)[C@H]1Cl [sucralose], the gut hormone release is listed as “no effect”.
